Source: PMC7257206, “A novel sphingosylphosphorylcholine and sphingosine-1-phosphate receptor 1 antagonist, KRO-105714, for alleviating atopic dermatitis” (Journal of Inflammation (London, England), 2020)

Legend:
[1] = target: T1, 2C9 (Homo sapiens, UniProt P11712); assay: biochemical
T1 construct: gene CYP2C9

[2] = target: T2, sphingosine-1-phosphate receptor 1 (S1P1) (Homo sapiens, UniProt P21453); assay: […]-GTPγS binding assay (SPC-stimulated) in membranes of HEK-293 cells stably expressing hS1P1; type: biochemical
T2 construct: gene S1PR1; hS1P1 stably expressed in HEK-293 cells (membrane pellets)

[3] = target: T3, 2D6 (Homo sapiens, UniProt P10635); assay: biochemical; set-up: CYP450 isoform inhibition assay, IC50; details: read-out: CYP450 IC50
T3 construct: gene CYP2D6

[4] = target: T4, hERG potassium channel (Homo sapiens, UniProt Q12809); assay: in vitro; set-up: hERG binding assay, [3H]astemizole displacement
T4 construct: gene KCNH2
Method: KRO-105714 also had no cardiotoxicity in the hERG potassium channel binding assay (IC50 > 10 μM) (Additional file 1: Table S1B).

[5] = target: T5, 3A4 (Homo sapiens, UniProt P08684); assay: biochemical; set-up: CYP450 isoform inhibition assay, IC50; details: read-out: CYP450 IC50
T5 construct: gene CYP3A4

[6] = target: T6, 2C19 (Homo sapiens, UniProt P33261); assay: biochemical; set-up: CYP450 isoform inhibition assay, IC50; details: read-out: CYP450 IC50
T6 construct: gene CYP2C19

[7] = target: T7, 1A2 (Homo sapiens, UniProt P05177); assay: biochemical; set-up: CYP450 isoform inhibition assay, IC50; details: read-out: CYP450 IC50
T7 construct: gene CYP1A2
T7 sequence (P05177 1-516): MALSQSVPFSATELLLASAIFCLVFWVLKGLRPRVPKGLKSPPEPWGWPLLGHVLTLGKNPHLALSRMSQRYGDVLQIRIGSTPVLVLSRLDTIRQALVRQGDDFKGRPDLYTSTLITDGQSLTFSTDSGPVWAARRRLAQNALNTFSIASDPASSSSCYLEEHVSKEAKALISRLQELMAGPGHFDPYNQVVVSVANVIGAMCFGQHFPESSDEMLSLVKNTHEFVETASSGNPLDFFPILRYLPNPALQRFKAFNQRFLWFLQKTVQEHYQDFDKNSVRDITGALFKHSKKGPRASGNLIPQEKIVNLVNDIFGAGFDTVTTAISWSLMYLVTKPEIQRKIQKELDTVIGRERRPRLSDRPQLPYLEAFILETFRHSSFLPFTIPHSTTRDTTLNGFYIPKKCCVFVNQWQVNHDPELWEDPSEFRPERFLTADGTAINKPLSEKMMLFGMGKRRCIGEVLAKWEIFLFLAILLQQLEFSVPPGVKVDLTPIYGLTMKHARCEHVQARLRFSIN

[8] = target: T4, hERG potassium channel; assay: biochemical

T4 sequence (Q12809 whole entry): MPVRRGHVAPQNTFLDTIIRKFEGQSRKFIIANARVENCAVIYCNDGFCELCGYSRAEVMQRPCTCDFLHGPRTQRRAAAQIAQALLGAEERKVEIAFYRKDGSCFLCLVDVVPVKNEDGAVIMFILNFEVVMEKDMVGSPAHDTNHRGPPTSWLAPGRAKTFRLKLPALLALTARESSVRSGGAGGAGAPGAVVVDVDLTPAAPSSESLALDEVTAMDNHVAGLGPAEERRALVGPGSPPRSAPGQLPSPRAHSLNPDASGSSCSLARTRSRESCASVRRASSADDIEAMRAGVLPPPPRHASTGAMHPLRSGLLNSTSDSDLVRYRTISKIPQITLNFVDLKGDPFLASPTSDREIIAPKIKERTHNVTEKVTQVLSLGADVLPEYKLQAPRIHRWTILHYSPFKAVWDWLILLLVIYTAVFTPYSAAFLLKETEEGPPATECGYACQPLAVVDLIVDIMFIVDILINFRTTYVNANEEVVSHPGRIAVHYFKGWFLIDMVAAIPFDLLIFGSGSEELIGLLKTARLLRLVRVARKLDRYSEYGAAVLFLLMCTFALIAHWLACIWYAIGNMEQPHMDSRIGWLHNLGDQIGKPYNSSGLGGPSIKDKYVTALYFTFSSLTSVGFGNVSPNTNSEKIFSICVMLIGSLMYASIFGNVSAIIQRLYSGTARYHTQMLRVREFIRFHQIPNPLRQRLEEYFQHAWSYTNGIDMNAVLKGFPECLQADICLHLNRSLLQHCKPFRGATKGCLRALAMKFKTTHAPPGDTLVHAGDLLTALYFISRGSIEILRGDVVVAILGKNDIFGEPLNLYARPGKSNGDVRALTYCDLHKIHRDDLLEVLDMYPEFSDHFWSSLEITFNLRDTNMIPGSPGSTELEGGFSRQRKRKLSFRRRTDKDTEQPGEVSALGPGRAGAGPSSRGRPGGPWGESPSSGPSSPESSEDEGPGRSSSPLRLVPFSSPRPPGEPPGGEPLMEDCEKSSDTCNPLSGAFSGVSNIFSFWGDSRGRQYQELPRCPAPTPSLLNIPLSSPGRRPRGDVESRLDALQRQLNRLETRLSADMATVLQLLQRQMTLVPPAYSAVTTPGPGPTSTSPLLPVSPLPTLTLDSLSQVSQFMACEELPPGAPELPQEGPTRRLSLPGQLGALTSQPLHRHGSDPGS
T1 sequence (P11712 whole entry): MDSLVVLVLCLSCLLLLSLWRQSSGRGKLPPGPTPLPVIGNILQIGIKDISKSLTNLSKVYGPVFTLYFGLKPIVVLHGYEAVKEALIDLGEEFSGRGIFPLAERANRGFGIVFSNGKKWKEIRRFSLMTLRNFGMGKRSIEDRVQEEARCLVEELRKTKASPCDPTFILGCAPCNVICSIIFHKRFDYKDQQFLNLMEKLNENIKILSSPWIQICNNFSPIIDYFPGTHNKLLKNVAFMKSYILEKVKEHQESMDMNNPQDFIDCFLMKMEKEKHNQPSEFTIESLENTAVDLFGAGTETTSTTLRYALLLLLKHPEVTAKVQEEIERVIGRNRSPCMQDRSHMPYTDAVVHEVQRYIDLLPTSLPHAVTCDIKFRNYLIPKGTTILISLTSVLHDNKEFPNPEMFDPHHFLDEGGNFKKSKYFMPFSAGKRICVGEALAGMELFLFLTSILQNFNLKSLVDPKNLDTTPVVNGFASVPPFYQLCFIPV
T3 sequence (P10635 whole entry, canonical isoform): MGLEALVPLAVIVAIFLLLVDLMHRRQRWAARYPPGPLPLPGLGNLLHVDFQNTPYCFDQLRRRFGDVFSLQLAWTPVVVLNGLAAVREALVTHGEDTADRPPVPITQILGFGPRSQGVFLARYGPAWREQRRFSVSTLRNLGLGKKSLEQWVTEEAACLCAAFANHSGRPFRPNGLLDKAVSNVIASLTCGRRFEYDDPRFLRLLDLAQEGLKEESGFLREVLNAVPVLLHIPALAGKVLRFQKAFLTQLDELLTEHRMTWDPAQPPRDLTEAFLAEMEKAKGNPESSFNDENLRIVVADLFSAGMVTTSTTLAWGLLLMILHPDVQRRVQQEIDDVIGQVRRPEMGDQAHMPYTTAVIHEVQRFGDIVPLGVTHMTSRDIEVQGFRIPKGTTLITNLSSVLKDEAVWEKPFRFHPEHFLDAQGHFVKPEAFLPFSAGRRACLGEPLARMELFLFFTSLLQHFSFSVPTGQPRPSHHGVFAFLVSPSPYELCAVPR
T2 sequence (P21453 whole entry): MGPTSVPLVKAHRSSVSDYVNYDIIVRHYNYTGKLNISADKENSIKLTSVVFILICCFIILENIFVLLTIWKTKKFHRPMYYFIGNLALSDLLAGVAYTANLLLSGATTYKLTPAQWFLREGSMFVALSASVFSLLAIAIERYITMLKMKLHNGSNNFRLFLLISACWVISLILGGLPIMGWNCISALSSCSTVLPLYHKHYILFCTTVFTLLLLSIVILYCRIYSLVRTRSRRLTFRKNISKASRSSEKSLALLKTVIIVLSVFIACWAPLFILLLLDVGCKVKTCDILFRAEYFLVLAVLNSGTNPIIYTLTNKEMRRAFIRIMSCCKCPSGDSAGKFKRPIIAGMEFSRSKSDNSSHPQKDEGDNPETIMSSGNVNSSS
T5 sequence (P08684 whole entry, canonical isoform): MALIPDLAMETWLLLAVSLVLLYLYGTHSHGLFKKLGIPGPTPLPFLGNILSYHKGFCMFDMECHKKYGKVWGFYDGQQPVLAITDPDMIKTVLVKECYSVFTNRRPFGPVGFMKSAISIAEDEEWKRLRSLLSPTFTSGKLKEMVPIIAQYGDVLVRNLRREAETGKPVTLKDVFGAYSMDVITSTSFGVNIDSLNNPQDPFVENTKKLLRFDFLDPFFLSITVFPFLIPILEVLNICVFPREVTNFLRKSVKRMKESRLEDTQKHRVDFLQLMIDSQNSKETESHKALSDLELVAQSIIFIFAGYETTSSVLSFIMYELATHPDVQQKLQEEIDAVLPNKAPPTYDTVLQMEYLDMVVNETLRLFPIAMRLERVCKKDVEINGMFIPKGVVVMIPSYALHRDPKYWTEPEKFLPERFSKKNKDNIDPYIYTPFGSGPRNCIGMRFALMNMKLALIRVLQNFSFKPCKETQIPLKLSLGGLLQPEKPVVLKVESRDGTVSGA
T6 sequence (P33261 whole entry, canonical isoform): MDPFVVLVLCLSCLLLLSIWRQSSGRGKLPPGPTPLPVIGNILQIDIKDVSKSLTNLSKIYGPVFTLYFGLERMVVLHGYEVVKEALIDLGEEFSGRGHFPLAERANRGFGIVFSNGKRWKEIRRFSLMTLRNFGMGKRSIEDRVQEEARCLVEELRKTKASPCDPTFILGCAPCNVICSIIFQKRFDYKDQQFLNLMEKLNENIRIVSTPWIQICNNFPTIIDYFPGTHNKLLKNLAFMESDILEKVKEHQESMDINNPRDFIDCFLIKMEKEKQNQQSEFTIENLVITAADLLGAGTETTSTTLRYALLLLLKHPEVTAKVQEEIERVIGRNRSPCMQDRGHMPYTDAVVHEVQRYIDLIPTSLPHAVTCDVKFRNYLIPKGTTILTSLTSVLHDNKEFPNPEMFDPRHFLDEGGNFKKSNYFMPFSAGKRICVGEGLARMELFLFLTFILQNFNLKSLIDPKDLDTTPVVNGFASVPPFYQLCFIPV

IC50 [1]: > 10 µM | IC50 [2]: 79.2 nM | IC50 [3]: > 10 µM | IC50 [5]: > 10 µM | IC50 [6]: > 10 µM | IC50 [7]: > 10 µM
Structure (SMILES): COc1ccccc1N1CCN(c2nc(NC(=O)C(C)(C)C)c(C(=O)c3ccccc3)s2)CC1 [KRO-105714]
inhibition at 10 µM ([4]; read-out: %-Inhibition/[3H]Astemizole -5): 45% | inhibition at 1 µM ([4]; read-out: %-Inhibition/[3H]Astemizole -6): 3% | IC50 [8]: > 10 µM
